Source: US9051310B2, “Nicotinamide derivative or salt thereof” (FUJIFILM Corporation, priority 2011, dated 2015)

Columns and labels:
[1] = system: THP-1 cells (TNFα secretion on human IgG-coated plate); test: TNFα generation assay; type: cell-based; conditions: IFN-γ differentiated THP-1 cells, 7 hours, AlphaLISA, read-out: IC50 of TNFα generation inhibitory activity
Method: THP-1 cells (2×10^5 cells/ml), which were human monocytoid cells, were cultured in the presence of 10 ng/ml IFN-γ (Roche) for 2 days, and they were induced to differentiate into macrophage-like cells. The differentiation-induced THP-1 cells were recovered, and the cells (1×10^6 cell/ml) were then allowed to react with a predetermined concentration of test compound at room temperature for 30 minutes. On the other hand, 100 μl of human IgG (10 μg/ml, SIGMA-ALDRICH) diluted with PBS was added to a 96-well plate, and it was then incubated at room temperature overnight. Thereafter, the resultant was washed with PBS twice to produce a human IgG-coated plate. A cell fluid that contained a compound was plated on the obtained human IgG-coated plate (5×10^4 cells/well), and it was then cultured for 7 hours. Thereafter, the cultured solution was recovered, and the amount of TNFα secreted into the culture solution was then measured by the AlphaLISA method (PerkinElmer).

[2] = molecular target: T1, glutathione S-transferase (GST)-linked full-length human Syk protein (Homo sapiens, UniProt P43405); test: Syk enzyme assay; type: biochemical; conditions: 0.83 nM Syk, time-resolved fluorescence; read-out: IC50 of Syk-inhibitory activity
T1 construct: glutathione S-transferase (GST)-linked full-length human Syk protein; purchased Carna Biosciences; host or cells: Baculovirus expression system
Procedure, shortened: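 Phosphotyrosine on a biotin-peptide substrate (0.5 μM) was read by time-resolved fluorescence at 615 and 665 nm with Eu-anti-pTyr antibody and APC-streptavidin after 1 h EDTA stop.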

SMILES | IC50 [1] [nM] | IC50 [2] [nM]
CC[C@H](N)[C@@H](C)Nc1nc(Nc2ccnc(OCCOC)c2)c(C(N)=O)cc1F [Example 2-42, 6(((2R,3S)-3-aminopentan-2-yl)amino)-5-2-((2-(2-methoxyethoxy)pyridin-4-yl)amino)nicotinamide] | 65 to 130 | 10 to 50
CC[C@H](N)[C@@H](CC)Nc1nc(Nc2ccnc(OCCOC)c2)c(C(N)=O)cc1F [Example 2-43, 6-(((3R,4S)-4-aminohexan-3-yl)amino)-5-fluoro-2-((2-(2-methoxyethoxy)pyridin-4-yl)amino)nicotinamide] | 130 to 200 | < 10
Cc1cc(C)cc(Nc2nc(N[C@H](C3CC3)[C@H](C)N)c(F)cc2C(N)=O)c1 [Example 2-45, 6-(((1R,2S)-2-amino-1-cyclopropylpropyl)amino)-2-((3,5-dimethylphenyl)amino)-5-fluoronicotinamide] | 130 to 200 | < 10
COc1cccc(Nc2nc(N[C@H](C3CC3)[C@H](C)N)c(F)cc2C(N)=O)c1 [Example 2-46, 6-(((1R,2S)-2-amino-1-cyclopropylpropyl)amino)-5-fluoro-2-((3-methoxyphenyl)amino)nicotinamide] | 65 to 130 | < 10
COc1cc(Nc2nc(N[C@H](C3CC3)[C@H](C)N)c(F)cc2C(N)=O)cc(OC)c1 [Example 2-47, 6-(((1R,2S)-2-amino-1-cyclopropylpropyl)amino)-2-((3,5-dimethoxyphenyl)amino)-5-fluoronicotinamide] | 65 to 130 | < 10
COc1cc(Nc2nc(N[C@H](C3CC3)[C@H](C)N)c(F)cc2C(N)=O)ccc1C [Example 2-49, 6-(((1R,2S)-2-amino-1-cyclopropylpropyl)amino)-5-fluoro-2-((3-methoxy-4-methylphenyl)amino)nicotinamide] | 130 to 200 | < 10
COc1nn(CC(F)F)c2ccc(Nc3nc(N[C@H](CC(C)C)[C@H](C)N)c(F)cc3C(N)=O)cc12 [Example 2-54, 6-(((2S,3R)-2-amino-5-methylhexan-3-yl)amino)-2-((1-(2,2-difluoroethyl)-3-methoxy-1H-indazol-5-yl)amino)-5-fluoronicotinamide] | 130 to 200 | < 10
CC[C@@H](Nc1nc(Nc2ccc3onc(OC)c3c2)c(C(N)=O)cc1F)[C@H](C)N [Example 2-57, 6-(((2S,3R)-2-aminopentan-3-yl)amino)-5-fluoro-2-((3-methoxybenzo[d]isoxazol-5-yl)amino)nicotinamide] | 65 to 130 | < 10
C[C@H](N)[C@H](Nc1nc(Nc2ccc(F)cc2)c(C(N)=O)cc1F)C1CC1 [Example 2-58, 6-(((1R,2S)-2-amino-1-cyclopropylpropyl)amino)-5-fluoro-2-((4-fluorophenyl)amino)nicotinamide] | 130 to 200 | 10 to 50
NC(=O)c1cc(F)c(N[C@@H]2CCCC[C@@H]2N)nc1Nc1cnc(-n2nccn2)c(F)c1 [Example 2-67, 6-(((1R,2S)-2-aminocyolohexyl)amino)-5-fluoro-2-((5-fluoro-6-(2H-1,2,3-triazol-2-yl)pyridin-3-yl)amino)nicotinamide] | 130 to 200 | 10 to 50
CCCC[C@@H](Nc1nc(Nc2cncc(-n3cccn3)c2)c(C(N)=O)cc1F)[C@H](C)N [Example 2-69, 2-((5-(1H-pyrazol-1-yl)pyridin-3-yl)amino)-6-(((2S,3R)-2-aminoheptan-3-yl)amino)-5-fluoronicotinamide] | 130 to 200 | 10 to 50
C[C@H](N)[C@H](Nc1nc(Nc2ccc3c(cnn3CC(F)F)c2)c(C(N)=O)cc1F)C1CC1 [Example 2-71] | < 65 | < 10
C[C@H](N)[C@H](Nc1nc(Nc2ccc3c(c2)c(N(C)C)nn3C)c(C(N)=O)cc1F)C1CC1 [Example 2-72, 6-(((1R,2S)-2-amino-1-cyclopropylpropyl)amino)-2-((3-(dimethylamino)-1-methyl-1H-indazol-5-yl)amino)-5-fluoronicotinamide] | 130 to 200 | < 10
CCn1nc(OC)c2cc(Nc3nc(N[C@H](C4CC4)[C@H](C)N)c(F)cc3C(N)=O)ccc21 [Example 2-73, 6-(((1R,2S)-2-amino-1-cyclopropylpropyl)amino)-2-((1-ethyl-3-methoxy-1H-indazol-5-yl)amino)-5-fluoronicotinamide] | 130 to 200 | < 10
C[C@H](N)[C@H](Nc1nc(Nc2cccc3c2cnn3CC(F)F)c(C(N)=O)cc1F)C1CC1 [Example 2-75, 6-(((1R,2S)-2-amino-1-cyclopropylpropyl)amino)-2-((1-(2,2-difluoroethyl)-1H-indazol-4-yl)amino)-5-fluoronicotinamide] | 130 to 200 | < 10
COc1nn(C)c2ccc(Nc3nc(N[C@@H](CN)CC(C)C)c(F)cc3C(N)=O)cc12 [Example 2-78, (R)-6-((1-amino-4-methylpentan-2-yl)amino)-5-fluoro-2-((3-methoxy-1-methyl-1H-indazol-5-yl)amino)nicotinamide] | 65 to 130 | < 10
COc1nn(C)c2ccc(Nc3nc(N[C@@H](CN)CC4CC4)c(F)cc3C(N)=O)cc12 [Example 2-79, (R)-6-((1-amino-3-cyclopropylpropan-2-yl)amino)-5-fluoro-2-((3-methoxy-1-methyl-1H-indazol-5-yl)amino)nicotinamide] | 130 to 200 | < 10
CCC[C@@H](Nc1nc(Nc2ccc3c(c2)c(OC)nn3C)c(C(N)=O)cc1F)[C@H](C)N [Example 2-80, 6-(((2S,3R)-2-aminohexan-3-yl)amino)-5-fluoro-2-((3-methoxy-1-methyl-1H-indazol-5-yl)amino)nicotinamide] | 65 to 130 | < 10
COc1nn(C)c2ccc(Nc3nc(N[C@H](C4CCC4)[C@H](C)N)c(F)cc3C(N)=O)cc12 [Example 2-82, 6-(((1R,2S)-2-amino-1-cyclobutylpropyl)amino)-5-fluoro-2-((3-methoxy-1-methyl-1H-indazol-5-yl)amino)nicotinamide] | 130 to 200 | < 10
CCCC[C@@H](Nc1nc(Nc2ccc3c(c2)c(OC)nn3C)c(C(N)=O)cc1F)[C@H](C)N [Example 2-83, 6-(((2S,3R)-2-aminoheptan-3-yl)amino)-5-fluoro-2-((3-methoxy-1-methyl-1H-indazol-5-yl)amino)nicotinamide] | 130 to 200 | < 10
CC[C@H](N)[C@@H](C)Nc1nc(Nc2ccc3c(c2)c(OC)nn3C)c(C(N)=O)cc1F [Example 2-84, 6-(((2R,3S)-3-aminopentan-2-yl)amino)-5-fluoro-2-((3-methoxy-1-methyl-1H-indazol-5-yl)amino)nicotinamide] | 130 to 200 | < 10
CC[C@H](N)[C@@H](CC)Nc1nc(Nc2cccc3c2cnn3CC)c(C(N)=O)cc1F [Example 2-101, 6-(((3R,4S)-4-aminohexan-3-yl)amino)-2-((1-ethyl-1H-indazol-4-yl)amino)-5-fluoronicotinamide] | 130 to 200 | < 10
CC(C)[C@@H](Nc1nc(Nc2ccc3ncccc3c2)c(C(N)=O)cc1F)[C@H](C)N [Example 2-106, 6-(((2S,3R)-2-amino-4-methylpentan-3-yl)amino)-5-fluoro-2-(quinolin-6-ylamino)nicotinamide] | 130 to 200 | 10 to 50
CCn1ncc2c(Nc3nc(N[C@H](COC)[C@H](C)N)c(F)cc3C(N)=O)cccc21 [Example 2-122, 6-(((2S,3S)-3-amino-1-methoxybutan-2-yl)amino)-2-((1-ethyl-1H-indazol-4-yl)amino)-5-fluoronicotinamide] | 130 to 200 | 10 to 50
CC[C@@H](Nc1nc(Nc2ccc3c(c2)c(OC)nn3CCOC)c(C(N)=O)cc1F)[C@H](C)N [Example 2-125, 6-(((2S,3R)-2-aminopentan-3-yl)amino)-5-fluoro-2-((3-methoxy-1-(2-methoxyethyl)-1H-indazol-5-yl)amino)nicotinamide] | 65 to 130 | < 10
CC[C@H](N)[C@@H](C)Nc1nc(Nc2ccc3c(c2)c(OC)nn3CCOC)c(C(N)=O)cc1F [Example 2-129, 6-(((2R,3S)-3-aminopentan-2-yl)amino)-5-fluoro-2-((3-methoxy-1-(2-methoxyethyl)-1H-indazol-5-yl)amino)nicotinamide] | 130 to 200 | 10 to 50
COCCn1nc(C)c2cc(Nc3nc(N[C@@H](CN)CC(C)C)c(F)cc3C(N)=O)ccc21 [Example 2-130] | 65 to 130 | < 10
CC[C@@H](Nc1nc(Nc2ccc3c(c2)c(C)nn3CCOC)c(C(N)=O)cc1F)[C@H](C)N [Example 2-131, 6-(((2S,3R)-2-aminopentan-3-yl)amino)-5-fluoro-2-((1-(2-methoxyethyl)-3-methyl-1H-indazol-5-yl)amino)nicotinamide] | 65 to 130 | < 10
CCC[C@@H](Nc1nc(Nc2ccc3c(c2)c(C)nn3CCOC)c(C(N)=O)cc1F)[C@H](C)N [Example 2-132, 6-(((2S,3R)-2-aminohexan-3-yl)amino)-5-fluoro-2-((1-(2-methoxyethyl)-3-methyl-1H-indazol-5-yl)amino)nicotinamide] | 130 to 200 | < 10
